Results reported in ChEMBL document CHEMBL2074097, “Urate transport via human PAH transporter hOAT1 and its gene structure” (Kidney Int, 2003).
One block for each molecule: values may come before it.

Tests used:
[1] = molecular target: T1, Solute carrier family 22 member 6 (Homo sapiens, UniProt Q4U2R8); assay: TP_TRANSPORTER: inhibition of Urate uptake (Urate: 300 uM, alpha-KG: 2000 uM) in OAT1-expressing S2 cells; assay type: functional, cell-based; design: scale not given: the % may be the effect or the level left; conditions: s2, 2000 µM
T1 sequence (Q4U2R8 whole entry): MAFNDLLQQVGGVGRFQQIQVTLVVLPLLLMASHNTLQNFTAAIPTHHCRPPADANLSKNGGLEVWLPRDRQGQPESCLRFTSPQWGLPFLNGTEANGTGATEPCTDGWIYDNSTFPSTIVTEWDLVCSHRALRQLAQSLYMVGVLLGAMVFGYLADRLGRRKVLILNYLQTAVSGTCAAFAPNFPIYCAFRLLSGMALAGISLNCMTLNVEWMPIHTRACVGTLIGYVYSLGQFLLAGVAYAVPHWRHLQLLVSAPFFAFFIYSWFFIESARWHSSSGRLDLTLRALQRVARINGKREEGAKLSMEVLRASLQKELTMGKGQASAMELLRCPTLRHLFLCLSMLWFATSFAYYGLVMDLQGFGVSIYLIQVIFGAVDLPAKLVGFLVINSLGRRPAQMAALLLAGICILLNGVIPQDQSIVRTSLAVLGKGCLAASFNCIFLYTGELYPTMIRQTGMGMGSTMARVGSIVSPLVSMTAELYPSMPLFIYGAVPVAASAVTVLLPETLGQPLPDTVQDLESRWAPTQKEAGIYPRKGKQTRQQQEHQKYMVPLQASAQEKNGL

[2] = substrate: O=c1[nH]c(=O)c2[nH]c(=O)[nH]c2[nH]1; assay: TP_TRANSPORTER: uptake in OAT1-expressing S2 cells; assay type: functional, cell-based

- Activity [1]: 12.4%
Molecule: O=C(O)CCC(=O)C(=O)O [ALPHA-KETOGLUTARIC ACID]

B1: Solute carrier family 22 member 6 (Homo sapiens) (protein)
chain: T1 sequence (Q4U2R8 whole entry)
- Km [2]: 947 µM
